From patent US20070128217A1 (priority 2003, published 2007)

Legend:
[1] = test system: antibodies in sera from SARS patients (sera 1a, 1b, 2, 6, 37, 62, London, SARS-yellow, SARS-green); format: binding, human; design: Binding of serum 6 to linear peptides of protein X1 of SARS-CoV Urbani / Binding of serum 37 to linear peptides of protein X1 of SARS-CoV Urbani / Binding of serum 6 to looped/cyclic peptide (PEPSCAN-ELISA) / Binding of serum 37 to looped/cyclic peptide (PEPSCAN-ELISA) / Binding of serum 37 to looped/cyclic peptides of protein X1 of SARS-CoV Urbani / Binding of serum 6 to linear peptides of protein X2 / Binding of serum 37 to linear peptides of protein X2 / Binding of serum 37 to looped/cyclic peptides of protein X2 of SARS-CoV Urbani / Binding of serum 6 to linear peptides of protein M of SARS-CoV Urbani / Binding of serum 37 to linear peptides of protein M of SARS-CoV Urbani / Binding of serum 6 to looped/cyclic peptides of protein M of SARS-CoV Urbani / Binding of serum 37 to looped/cyclic peptides of protein M of SARS-CoV Urbani / Binding of serum 6 to linear peptides of protein X3 of SARS-CoV Urbani / Binding of serum 37 to linear peptides of protein X3 of SARS-CoV Urbani / Binding of serum 37 to looped/cyclic peptides of protein X3 of SARS-CoV Urbani / Binding of serum 6 to linear peptides of protein X4 of SARS-CoV Urbani / Binding of serum 37 to linear peptides of protein X4 of SARS-CoV Urbani / Binding of serum 37 to looped/cyclic peptides of protein X4 of SARS-CoV Urbani / Binding of serum 6 to linear peptides of protein X5 of SARS-CoV Urbani / Binding of serum 37 to linear peptides of protein X5 of SARS-CoV Urbani / Binding of serum 37 to looped/cyclic peptides of protein X5 of SARS-CoV Urbani / Binding of serum 6 to linear peptides of protein N of SARS-CoV Urbani / Binding of serum 37 to linear peptides of protein N of SARS-CoV Urbani / Binding of serum 6 to linear peptide (PEPSCAN-ELISA) / Binding of serum 1a to looped/cyclic peptides of protein N of SARS-CoV Urbani / Binding of serum 1b to looped/cyclic peptides of protein N of SARS-CoV Urbani / Binding of serum 2 to looped/cyclic peptides of protein N of SARS-CoV Urbani / Binding of serum 6 to looped/cyclic peptides of protein N of SARS-CoV Urbani / Binding of serum 37 to looped/cyclic peptides of protein N of SARS-CoV Urbani / Binding of serum 62 to looped/cyclic peptides of protein N of SARS-CoV Urbani / Binding of serum London to looped/cyclic peptides of protein N of SARS-CoV Urbani / Binding of serum SARS-green to looped/cyclic peptides of protein N of SARS-CoV Urbani: unit not given here
[2] = test system: control sera (pooled serum of ten healthy LUMC hospital workers; commercial negative donor pooled serum from the Dutch bloodbank); format: binding, human; design: Binding of Control serum LUMC to linear peptides / Binding of Control serum Blood-bank to linear peptides / Binding of Control serum LUMC to looped peptides / Binding of Control Serum Blood-Bank to Looped peptides / Binding of Control serum LUMC to linear peptides of the protein M of SARS-CoV Urbani / Binding of Control serum Blood-bank to linear peptides of the protein M of SARS-CoV Urbani / Binding of Control serum LUMC to looped peptides of the protein M of SARS-CoV Urbani / Binding of Control Serum Blood-Bank to Looped peptides of the protein M of SARS-CoV Urbani: unit not given here
[3] = test system: rabbit serum obtained by immunizing a rabbit with the SARS-CoV strain Frankfurt 1; format: binding; design: Binding of a rabbit serum to linear peptides / Binding of a rabbit serum to looped peptides / Rabbit serum linear peptides / Rabbit serum looped peptides / Binding of a rabbit serum to linear peptides of protein N of SARS-CoV Urbani (Rabbit serum linear peptides) / Binding of a rabbit serum to looped/cyclic peptides of protein N of SARS-CoV Urbani (Rabbit serum looped peptides): unit not given here

RHTYQLRARSVSPKL
Binding of serum 1a to linear peptides of protein X4 of SARS-CoV Urbani [1]: 0.8 | Binding of serum 1a to looped/cyclic peptides of protein X4 of SARS-CoV Urbani [1]: 0.8 | Binding of serum 1b to linear peptides of protein X4 of SARS-CoV Urbani [1]: 0.6 | Binding of serum 1b to looped/cyclic peptides of protein X4 of SARS-CoV Urbani [1]: 0.5 | Binding of serum 2 to linear peptides of protein X4 of SARS-CoV Urbani [1]: 0.6 | Binding of serum 2 to looped/cyclic peptides of protein X4 of SARS-CoV Urbani [1]: 0.7 | Binding of serum 6 to linear peptides of protein X4 of SARS-CoV Urbani [1]: 1.1 | Binding of serum 6 to looped/cyclic peptides of protein X4 of SARS-CoV Urbani [1]: 0.8 | Binding of serum 37 to linear peptides of protein X4 of SARS-CoV Urbani [1]: 0.9 | Binding of serum 37 to looped/cyclic peptides of protein X4 of SARS-CoV Urbani [1]: 0.7 | Binding of serum 62 to linear peptides of protein X4 of SARS-CoV Urbani [1]: 0.8 | Binding of serum 62 to looped/cyclic peptides of protein X4 of SARS-CoV Urbani [1]: 0.6 | Binding of serum London to linear peptides of protein X4 of SARS-CoV Urbani [1]: 0.8 | Binding of serum London to looped/cyclic peptides of protein X4 of SARS-CoV Urbani [1]: 0.3 | Binding of serum SARS-green to linear peptides of protein X4 of SARS-CoV Urbani [1]: 0.7 | Binding of serum SARS-green to looped/cyclic peptides of protein X4 of SARS-CoV Urbani [1]: 0.4 | Binding of serum SARS-yellow to linear peptides of protein X4 of SARS-CoV Urbani [1]: 0.6 | Binding of serum SARS-yellow to looped/cyclic peptides of protein X4 of SARS-CoV Urbani [1]: 0.7 | Binding of Control Serum Blood-Bank to Looped peptides [2]: 0.6 | Binding of Control serum Blood-bank to linear peptides [2]: 0.8 | Binding of Control serum LUMC to linear peptides [2]: 0.7 | Binding of Control serum LUMC to looped peptides [2]: 0.7 | Recognition of the peptide by the rabbit serum [3]: recognized

RIIMRCWLCWKCKSK
Binding of serum 1a to looped/cyclic peptide (PEPSCAN-ELISA) [1]: 0.2 | Binding of serum 1b to looped/cyclic peptide (PEPSCAN-ELISA) [1]: 0.2 | Binding of serum 2 to looped/cyclic peptide (PEPSCAN-ELISA) [1]: 0.1 | Binding of serum 6 to looped/cyclic peptide (PEPSCAN-ELISA) [1]: 0.1 | Binding of serum 37 to looped/cyclic peptide (PEPSCAN-ELISA) [1]: 0.2 | Binding of serum 62 to looped/cyclic peptide (PEPSCAN-ELISA) [1]: 0.3 | Binding of serum London to looped/cyclic peptide (PEPSCAN-ELISA) [1]: 0.1 | Binding of serum SARS-green to looped/cyclic peptide (PEPSCAN-ELISA) [1]: 0.1 | Binding of serum SARS-yellow to looped/cyclic peptide (PEPSCAN-ELISA) [1]: 0.1 | Recognition of the peptide by sera of SARS-CoV infected individuals, and form (linear, looped/cyclic) in which it is recognized [1]: recognized in linear form | Binding of Control Serum Blood-Bank to Looped peptides [2]: 0.3 | Binding of Control serum Blood-bank to linear peptides [2]: 0.3 | Binding of Control serum LUMC to linear peptides [2]: 0.2 | Binding of Control serum LUMC to looped peptides [2]: 0.3 | Binding of a rabbit serum to linear peptides [3]: 0.1 | Binding of a rabbit serum to looped peptides [3]: 0.3

RINWVTGGIAIAMAC
Binding of serum 1a to linear peptides of protein M of SARS-CoV Urbani [1]: 0.7 | Binding of serum 1a to looped/cyclic peptides of protein M of SARS-CoV Urbani [1]: 0.7 | Binding of serum 1b to linear peptides of protein M of SARS-CoV Urbani [1]: 0.7 | Binding of serum 1b to looped/cyclic peptides of protein M of SARS-CoV Urbani [1]: 0.2 | Binding of serum 2 to linear peptides of protein M of SARS-CoV Urbani [1]: 0.6 | Binding of serum 2 to looped/cyclic peptides of protein M of SARS-CoV Urbani [1]: 0.6 | Binding of serum 6 to linear peptides of protein M of SARS-CoV Urbani [1]: 0.8 | Binding of serum 6 to looped/cyclic peptides of protein M of SARS-CoV Urbani [1]: 0.4 | Binding of serum 37 to linear peptides of protein M of SARS-CoV Urbani [1]: 0.5 | Binding of serum 37 to looped/cyclic peptides of protein M of SARS-CoV Urbani [1]: 0.7 | Binding of serum 62 to linear peptides of protein M of SARS-CoV Urbani [1]: 0.5 | Binding of serum 62 to looped/cyclic peptides of protein M of SARS-CoV Urbani [1]: 0.7 | Binding of serum London to linear peptides of protein M of SARS-CoV Urbani [1]: 0.5 | Binding of serum London to looped/cyclic peptides of protein M of SARS-CoV Urbani [1]: 0.2 | Binding of serum SARS-green to linear peptides of protein M of SARS-CoV Urbani [1]: 0.6 | Binding of serum SARS-green to looped/cyclic peptides of protein M of SARS-CoV Urbani [1]: 0.3 | Binding of serum SARS-yellow to linear peptides of protein M of SARS-CoV Urbani [1]: 0.3 | Binding of serum SARS-yellow to looped/cyclic peptides of protein M of SARS-CoV Urbani [1]: 0.7 | Binding of Control Serum Blood-Bank to Looped peptides of the protein M of SARS-CoV Urbani [2]: 0.5 | Binding of Control serum Blood-bank to linear peptides of the protein M of SARS-CoV Urbani [2]: 0.8 | Binding of Control serum LUMC to linear peptides of the protein M of SARS-CoV Urbani [2]: 0.8 | Binding of Control serum LUMC to looped peptides of the protein M of SARS-CoV Urbani [2]: 0.8 | Rabbit serum linear peptides [3]: 0.2 | Rabbit serum looped peptides [3]: 0.4
